Data taken from patent US20130149287A1, “Corticogenesis of Human Pluripotent Cells” (Cambridge Enterprise Limited, priority 2010, published 2013).
Entries after “also recorded” stand apart in the source; their conditions may differ.

Legend:
Assay type in all cases: cell-based, human
[1] = tested on: voltage-gated potassium channels; assay: Whole-cell patch-clamp recording of voltage-gated potassium currents in PSC-derived cortical neurons; conditions: step depolarizations from holding potential -80 mV to +40
[2] = tested on: AMPA receptor; assay: Whole cell patch-clamp recording of miniature excitatory post-synaptic currents (mEPSCs) in hESC/hiPSC-derived cortical neurons; conditions: hESC- and hiPSC-derived cortical neurons, cultures between days 45 and 100
Text: […] Borosilicate glass electrodes (resistance 6-10 MΩ) were filled with an intracellular solution containing (in mM): 135 K-Gluconate, 7 NaCl, 10 Hepes, 2 Na2ATP, 0.3 Na2GTP, 2 MgCl2. Cells were viewed using a BW50WI microscope (Olympus) with infrared DIC optics. Recordings were made with a Multiclamp 700 A amplifier (Molecular Devices). Signals were filtered at 4 kHz, sampled at 20 kHz with 16-bit resolution, and analysed using Matlab (MathWorks).

[3] = tested on: gamma-secretase complex; assay: Sandwich ELISA of secreted Aβ40 and Aβ42 in DS cortical neuron culture supernatant under gamma-secretase inhibition; conditions: DS cortical neurons
Description: Quantification of secreted Aβ40 and Aβ42 was carried out by sandwich ELISA (Invitrogen) of 50 μl of cell culture supernatant from cultures of DS, iPS control and H9 hES cortical neurons. For quantification of water-soluble and insoluble Aβ peptides, water- and formic acid-soluble protein fractions from whole cell extracts of cortical cultures were prepared and levels of each peptide measured by ELISA (Invitrogen). Inhibition of gamma-secretase was carried out in DS cortical cultures by addition of DAPT (Calbiochem) every 48 hours from day 50 of differentiation onwards.

[4] = tested on: voltage-gated sodium channels
[5] = tested on: hESC and hiPSC cell lines; assay: Efficiency of cortical induction by percentage of Pax6-expressing cells, with or without retinoids; conditions: retinol acetate and all-trans retinol included together, with dual SMAD inhibition; two hESC and four iPSC lines
Description: hESCs or iPSCs were isolated from MEFs following dissociation to single cells with Accutase (Innovative Cell Technologies) by a 1 hr pre-plate on gelatin-coated dishes in hESC medium supplemented with 10 ng/ml FGF2 and 10 μM ROCK inhibitor (Calbiochem). The non-adherent pluripotent stem cells were harvested and plated on Matrigel (BD) coated 12-well plates in MEF-conditioned hESC medium with 10 ng/ml FGF2. Once the cell culture reached 95% confluence, neural induction was initiated by changing the culture medium to a culture medium that supports neural induction, neurogenesis and neuronal differentiation (referred to as 3N medium), a 1:1 mixture of N2- and B27-containing media. N2 medium: DMEM/F12, N2 (GIBCO), 5 μg/ml Insulin, 1 mM L-Glutamine, 100 μm non-essential amino acids, 100 μM 2-mercaptoethanol, 50 U/ml Penicillin and […] Streptomycin; B27 medium: Neurobasal (Invitrogen), B27 with vitamin A (GIBCO), 200 mM Glutamine, 50 U/ml Penicillin and […] Streptomycin. […] Cells were maintained in this medium for 8-11 days, during which time the efficiency of neural induction was monitored by the appearance of cells with characteristic neuroepithelial cell morphology. […] For quantifying numbers of cells expressing specific cortical neuronal markers, cell cultures were dissociated into single cells with Accutase and resuspended at a density of 100,000 cells/ml. […]

[6] = tested on: cortical rosettes; assay: Regional identity of early-stage cortical rosettes after hedgehog signalling agonist treatment

**Q.** `Nc1ccncc1` [4-AP, 4-aminopyridine] was tested. Which “voltage-gated outward potassium current” value [1] did it give?
**A.** blocks a fast-activating transient fraction of outward K current; also recorded: a transient component of which was blocked

**Q.** For `N#Cc1cc2[nH]c(=O)c(=O)[nH]c2cc1[N+](=O)[O-]` [CNQX], which “appearance of mEPSCs” value [2] is on record?
**A.** blocked the appearance of mEPSCs

**Q.** `C[C@H](NC(=O)Cc1cc(F)cc(F)c1)C(=O)N[C@H](C(=O)OC(C)(C)C)c1ccccc1` [DAPT] was tested. Which “production/secretion of both Aβ peptides” value ([3]; longer term 21 day gamma-secretase inhibition) did it give?
**A.** undetectable levels

**Q.** And the “production of Aβ40 and Aβ42 (secreted)” value ([3]; short-term 4 day gamma-secretase inhibition)?
**A.** reduces production of both Aβ40 and Aβ42

**Q.** How did the “fast-activating and inactivating inward voltage-gated sodium currents” value [4] turn out when `NC1=N[C@H](O)[C@H]2[C@H]3O[C@]4(O)O[C@@H]([C@@H](O)[C@@]2(N1)[C@@H]4O)[C@]3(O)CO` [TTX, tetrodotoxin] was run?
**A.** completely blocked

**Q.** How did the “cortical neural induction, Pax6 expression” value [5] turn out when `CC1=C(/C=C/C(C)=C/C=C/C(C)=C/CO)C(C)(C)CCC1` [all-trans retinol] was run?
**A.** robust, efficient differentiation of all lines to cortical neural stem/progenitor cells, with almost all cells expressing Pax6

**Q.** How did the “effect on regional identity of cortical rosettes” value [6] turn out when `c1ccc2c(Oc3nc(Nc4ccc(N5CCOCC5)cc4)c4ncn(C5CCCCC5)c4n3)cccc2c1` [purapomorphine] was run?
**A.** ventralises the rosettes, resulting in the genesis of GAD67+ GABAergic interneurons

**Q.** Which “cortical neural induction, Pax6 expression” value [5] does the source give for retinol acetate here?
**A.** robust, efficient differentiation of all lines to cortical neural stem/progenitor cells, with almost all cells expressing Pax6
